“Also recorded” adds a separate entry of the source.
Legend:
[1] = Biodistribution in healthy and SRC bearing rats at 1 h after i.v. injection of radiolabelled compounds; type: in vivo; settings: mean ± SD (n = 3); for Tumor: SRC (Swarm Rat Chondrosarcoma) bearing rats; for Articular Cartilage / Bladder / Blood / Kidney / Muscle / Liver: healthy and SRC bearing rats; for Liver: ND: at undetectable levels
Procedure: Quantitative biodistribution of radiolabelled compounds was determined in rats: healthy animals as well as rats with primary grade II orthotopic chondrosarcoma at stage Day-30 after induction. The chondrosarcoma model was the Swarm Rat Chondrosarcoma model (SRC) implanted in paratibial location. Radiolabelled compounds (5-10 Mbq/animal) were i.v. administered in the caudal vein of animals being anesthetized of mixture of ketamine (58 mg/kg i.p.) (Imalgéne 500®) and xylazine (6 mg/kg i.p.) (Rompun® 2%, Bayer, France). One hour after injection, animals were then sacrificed by CO2 inhalation, dissected and organs of interest removed, weighed and their radioactivity counted using a gamma counter (Model 1480 Wizard, Perkin Elmer Life Sciences, Boston, USA). Organs collected were blood, muscle, knee, kidneys, liver, thoracic ribs, bladder for both healthy and chondrosarcoma bearing rats. For SRC animals, tumour was also sampled. After radioactive decay correction, results were expressed for each organ as % injected dose per gram (% ID/g) and averaged per group.

[2] = Study 2: biodistribution in healthy New Zealand rabbits (gamma counting of dissected organs); type: in vivo; settings: for Uptake ratio Cartilage/Bone / Uptake ratio Cartilage/Muscle / Articular Cartilage / Bile / Blood / Bone / Bone Marrow / Kidney / Liver / Lung / Muscle / Spleen / Thyroid / Urine: i.v.
Procedure: Biodistribution were determined in 36 healthy New Zealand rabbits (18 males and 18 females, 14 weeks old, 3.5 kg weight, Charles River, France), being randomly divided into two groups: • One group receiving ^99mTc-NTP 15-5: 18±3 MBq/animal for biodistribution; • One group receiving ^64Cu-2: 17±4 MBq/animal for biodistribution.
The compounds were i.v. administered to anesthetized animals (ketamine/xylazine by intramuscular route) in the marginal ear vein.
At selected time points after injection (15 min, 1 h, 3 h, 6 h, 20 h after injection), animals (3 animals/time point/compound) were sacrificed by a lethal i.v. dose of pentobarbital. Organs of interest were dissected, weighed and their radioactivity measured using a gamma counter (Model 1480 Wizard, Perkin Elmer Life Sciences, Boston, USA). After radioactive decay correction, results were expressed for each organ as % injected dose per gram (% ID/g) and averaged per group and per time point.

Structure (SMILES): CC[N+](CC)(CC)CCCN1CCCNCCN(Cc2ccccn2)CCCNCC1.[64Cu+2] [^64Cu-27, [^64Cu]—N,N,N-Triethyl-3-(8-(pyridin-2-ylmethyl)-1,4,8,11-tetraazacyclotetradecan-1-yl)propan-1-aminium copper(II)]
- Tumor [1]: 1.4 ± 0.07 % ID/g
- Articular Cartilage [1]: 1.5 ± 0.4 % ID/g
- Bladder [1]: 30.5 ± 10.9 % ID/g
- Blood [1]: 0.4 ± 0.07 % ID/g
- Kidney [1]: 7.6 ± 4.6 % ID/g
- Muscle [1]: 0.43 ± 0.15 % ID/g
- Liver [1]: 1.2 ± 0.4 % ID/g

Structure (SMILES): CC[N+](CC)(CC)CCCN1CCCN(Cc2ccccn2)CCNCCCN(Cc2ccccn2)CC1.[64Cu+2] [^64Cu-30, [^64Cu]-3-(4,11-Bis(pyridin-2-ylmethyl)-1,4,8,11-tetraazacyclotetradecan-1-yl)-N,N,N-triethylpropan-1-aminium copper(II)]
- Tumor [1]: 4.2 ± 0.6 % ID/g
- Articular Cartilage [1]: 2.7 ± 0.4 % ID/g
- Bladder [1]: 25.2 ± 10.6 % ID/g
- Blood [1]: 0.7 ± 0.2 % ID/g
- Kidney [1]: 9.2 ± 0.9 % ID/g
- Muscle [1]: 0.80 ± 0.4 % ID/g

Structure (SMILES): CC[N+](CC)(CC)CCCN1CCNCCNCCNCCNCC1.[64Cu+2] [^64Cu-2, [^64Cu]—N,N,N-Triethyl-3-(1,4,7,10,13-pentaazacyclopentadecan-1-yl)propan-1-aminium copper(II)]
- Accumulation in kidneys compared to ^99mTc-NTP 15-5 [2]: significantly higher
- Cartilage/muscle and cartilage/Bone ratios compared to ^99mTc-NTP 15-5 [2]: higher
- Duration of liver accumulation compared to ^99mTc-NTP 15-5 [2]: shorter
- Accumulation in cartilage (onset) ([2]; as early as 15 min p.i.): rapidly accumulate
- Uptake into the cartilages compared to ^99mTc-NTP 15-5 ([2]; each time investigated): faster and higher uptake; also recorded: higher levels
- Uptake ratio Cartilage/Bone ([2]; 15 min): 120
- Uptake ratio Cartilage/Muscle ([2]; 15 min): 282
- Articular Cartilage ([2]; 15 min after injection): 8.46 ± 6.18 % ID/g
- Bile ([2]; 15 min after injection): 0.07 ± 0.04 % ID/g
- Blood ([2]; 15 min after injection): 0.31 ± 0.17 % ID/g
- Bone ([2]; 15 min after injection): 0.07 ± 0.02 % ID/g
- Bone Marrow ([2]; 15 min after injection): 0.08 ± 0.04 % ID/g
- Kidney ([2]; 15 min after injection): 0.65 ± 0.47 % ID/g
- Liver ([2]; 15 min after injection): 0.11 ± 0.03 % ID/g
- Lung ([2]; 15 min after injection): 0.23 ± 0.14 % ID/g
- Muscle ([2]; 15 min after injection): 0.03 ± 0.02 % ID/g
- Spleen ([2]; 15 min after injection): 0.11 ± 0.08 % ID/g
- Thyroid ([2]; 15 min after injection): 0.11 ± 0.08 % ID/g
- Urine ([2]; 15 min after injection): 1.51 ± 2.22 % ID/g
- Uptake ratio Cartilage/Bone ([2]; 1 h): 484
- Uptake ratio Cartilage/Muscle ([2]; 1 h): 484
- Articular Cartilage ([2]; 1 h after injection): 4.81 ± 1.16 % ID/g
- Bile ([2]; 1 h after injection): 0.03 ± 0.02 % ID/g
- Blood ([2]; 1 h after injection): 0.08 ± 0.02 % ID/g
- Bone ([2]; 1 h after injection): 0.01 ± 0.00 % ID/g
- Bone Marrow ([2]; 1 h after injection): 0.03 ± 0.01 % ID/g
- Kidney ([2]; 1 h after injection): 0.26 ± 0.07 % ID/g
- Liver ([2]; 1 h after injection): 0.04 ± 0.01 % ID/g
- Lung ([2]; 1 h after injection): 0.07 ± 0.02 % ID/g
- Muscle ([2]; 1 h after injection): 0.01 ± 0.00 % ID/g
- Spleen ([2]; 1 h after injection): 0.03 ± 0.01 % ID/g
- Thyroid ([2]; 1 h after injection): 0.03 ± 0.01 % ID/g
- Urine ([2]; 1 h after injection): 1.69 ± 2.14 % ID/g
- Articular Cartilage ([2]; 3 h after injection): 2.31 ± 0.32 % ID/g
- Bile ([2]; 3 h after injection): 0.11 ± 0.17 % ID/g
- Blood ([2]; 3 h after injection): 0.02 ± 0.00 % ID/g
- Bone ([2]; 3 h after injection): 0.01 ± 0.00 % ID/g
- Bone Marrow ([2]; 3 h after injection): 0.01 ± 0.00 % ID/g
- Kidney ([2]; 3 h after injection): 0.22 ± 0.01 % ID/g
- Liver ([2]; 3 h after injection): 0.02 ± 0.00 % ID/g
- Lung ([2]; 3 h after injection): 0.03 ± 0.00 % ID/g
- Muscle ([2]; 3 h after injection): 0.00 ± 0.00 % ID/g
- Spleen ([2]; 3 h after injection): 0.02 ± 0.00 % ID/g
- Thyroid ([2]; 3 h after injection): 0.04 ± 0.05 % ID/g
- Urine ([2]; 3 h after injection): 0.92 ± 0.63 % ID/g
- Articular Cartilage ([2]; 6 h after injection): 1.00 ± 1.02 % ID/g
- Bile ([2]; 6 h after injection): 0.02 ± 0.02 % ID/g
- Blood ([2]; 6 h after injection): 0.02 ± 0.02 % ID/g
- Bone ([2]; 6 h after injection): 0.00 ± 0.00 % ID/g
- Bone Marrow ([2]; 6 h after injection): 0.01 ± 0.01 % ID/g
- Kidney ([2]; 6 h after injection): 0.26 ± 0.14 % ID/g
- Liver ([2]; 6 h after injection): 0.02 ± 0.02 % ID/g
- Lung ([2]; 6 h after injection): 0.02 ± 0.02 % ID/g
- Muscle ([2]; 6 h after injection): 0.00 ± 0.00 % ID/g
- Spleen ([2]; 6 h after injection): 0.02 ± 0.02 % ID/g
- Thyroid ([2]; 6 h after injection): 0.00 ± 0.00 % ID/g
- Urine ([2]; 6 h after injection): 6.90 ± 7.93 % ID/g
- Articular Cartilage ([2]; 20 h after injection): 0.10 ± 0.02 % ID/g
- Bile ([2]; 20 h after injection): 0.01 ± 0.00 % ID/g
- Blood ([2]; 20 h after injection): 0.00 ± 0.00 % ID/g
- Bone ([2]; 20 h after injection): 0.00 ± 0.00 % ID/g
- Bone Marrow ([2]; 20 h after injection): 0.00 ± 0.00 % ID/g
- Kidney ([2]; 20 h after injection): 0.06 ± 0.01 % ID/g
- Liver ([2]; 20 h after injection): 0.00 ± 0.00 % ID/g
- Lung ([2]; 20 h after injection): 0.00 ± 0.00 % ID/g
- Muscle ([2]; 20 h after injection): 0.00 ± 0.00 % ID/g
- Spleen ([2]; 20 h after injection): 0.01 ± 0.00 % ID/g
- Thyroid ([2]; 20 h after injection): 0.00 ± 0.00 % ID/g
- Urine ([2]; 20 h after injection): 0.25 ± 0.22 % ID/g
- Urinary elimination ([2]; indicated by accumulation in kidneys): high/rapid
- In vivo stability (release of ^64Cu from transchelation or transmetalation negligible) ([2]; inferred from liver uptake): stable
- Tumor [1]: 3.5 ± 0.5 % ID/g
- Articular Cartilage [1]: 2.6 ± 1.1 % ID/g
- Bladder [1]: 62.2 ± 17.6 % ID/g
- Blood [1]: 0.1 ± 0.05 % ID/g
- Kidney [1]: 16.4 ± 6.6 % ID/g
- Muscle [1]: 0.4 ± 0.3 % ID/g

Structure (SMILES): CC[N+](CC)(CC)CCCN1CCCN2CCN(CCCN(CC(=O)O)CC1)CC2.[64Cu+2] [^64Cu-14, [^64Cu]-3-(8-(Carboxymethyl)-1,5,8,12-tetraazabicyclo[10.2.2]hexadecan-5-yl)-N,N,N-triethylpropan-1-aminium copper(II)]
- Articular Cartilage [1]: 0.11 ± 0.02 % ID/g
- Bladder [1]: 14.71 % ID/g
- Blood [1]: 0.09 ± 0.04 % ID/g
- Kidney [1]: 0.73 ± 0.22 % ID/g
- Muscle [1]: 0.04 ± 0.00 % ID/g
- Liver [1]: 0.06 ± 0.02 % ID/g

Structure (SMILES): CC[N+](CC)(CC)CCCN1CCCN2CCN(CCCN(CC(=O)OC(C)(C)C)CC1)CC2.[64Cu+2] [^64Cu-13, [^64Cu]-3-(8-(2-tert-Butoxy-2-oxoethyl)-1,5,8,12-tetraazabicyclo[10.2.2]hexadecan-5-yl)-N,N,N-triethylpropan-1-aminium copper(II)]
- Articular Cartilage [1]: 0.16 ± 0.06 % ID/g
- Bladder [1]: 11.83 % ID/g
- Blood [1]: 0.07 ± 0.01 % ID/g
- Kidney [1]: 1.06 ± 0.66 % ID/g
- Muscle [1]: 0.03 ± 0.01 % ID/g
- Liver [1]: 0.06 ± 0.01 % ID/g
